From ChEMBL document CHEMBL1201862, “PubChem BioAssay data set” (2004)
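Tested at 5 concentrations; 48 h exposure; 96-well plates; endpoints linearly interpolated, else capped at highest concentration. Here, GI50 denotes the concentration required for 50% inhibition of growth.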 Active and inactive are the calls of the source. No stated cut-off is given here; in the data, active = GI50 up to about 1.1 µM and inactive = higher.

Tests used:
Test in all cases: NCI-60 cell line screen, 48 h
[1] = test system: SF-539
[2] = test system: MDA-MB-435
[3] = test system: HOP-92
[4] = test system: A549
[5] = test system: 786-0
[6] = test system: SF-268
[7] = test system: SN12C
[8] = test system: UACC-62
[9] = test system: SK-OV-3
[10] = test system: IGROV-1
[11] = test system: NCI/ADR-RES
[12] = test system: HOP-62
[13] = test system: RXF 393
[14] = test system: OVCAR-8
[15] = test system: SK-MEL-2
[16] = test system: HCC 2998
[17] = test system: HCT-15
[18] = test system: UO-31
[19] = test system: U-251
[20] = test system: Malme-3M

| Structure (SMILES) | GI50 [1] | GI50 [2] | GI50 [3] | GI50 [4] | GI50 [5] | GI50 [6] | GI50 [7] | GI50 [8] | GI50 [9] | GI50 [10] | GI50 [11] | GI50 [12] | GI50 [13] | GI50 [14] | GI50 [15] | GI50 [16] | GI50 [17] [µM] | GI50 [18] | GI50 [19] | GI50 [20] |
| --- | --- | --- | --- | --- | --- | --- | --- | --- | --- | --- | --- | --- | --- | --- | --- | --- | --- | --- | --- | --- |
| CCOC(=O)c1cc([N+](=O)[O-])cc([N+](=O)[O-])c1Sc1[nH]cnc2ncnc1-2 | 2.92 µM (inactive) | 1.6 µM (inactive) | 0.771 µM (active) | 14.3 µM (inactive) | 0.824 µM (active) | 3.32 µM (inactive) | 2.21 µM (inactive) | 4.5 µM (inactive) | 11 µM (inactive) | 2.31 µM (inactive) | 3.11 µM (inactive) | 3.54 µM (inactive) | 1.82 µM (inactive) | 1.93 µM (inactive) | 2.93 µM (inactive) | 11.9 µM (inactive) | 4.33 | 1.75 µM (inactive) | 8.71 µM (inactive) | – |
| Oc1ccc2c(c1)OCC(O)(c1ccccc1O)C2 (stereo not drawn) | > 100 µM (inactive) | > 100 µM (inactive) | > 100 µM (inactive) | – | > 100 µM (inactive) | > 100 µM (inactive) | > 100 µM (inactive) | > 100 µM (inactive) | > 100 µM (inactive) | > 100 µM (inactive) | > 100 µM (inactive) | > 100 µM (inactive) | > 100 µM (inactive) | > 100 µM (inactive) | > 100 µM (inactive) | > 100 µM (inactive) | > 100 | > 100 µM (inactive) | > 100 µM (inactive) | – |
| CCc1n[nH]c(=O)n1NC(=O)c1ccccc1C(=O)O | > 100 µM (inactive) | > 100 µM (inactive) | > 100 µM (inactive) | > 100 µM (inactive) | > 100 µM (inactive) | > 100 µM (inactive) | > 100 µM (inactive) | > 100 µM (inactive) | > 100 µM (inactive) | > 100 µM (inactive) | > 100 µM (inactive) | > 100 µM (inactive) | > 100 µM (inactive) | > 100 µM (inactive) | > 100 µM (inactive) | > 100 µM (inactive) | > 100 | > 100 µM (inactive) | > 100 µM (inactive) | – |
| Nc1c(/C=C/c2cc3cc(C4=NCCN4)ccc3o2)[nH]c2cc(C3=NCCN3)ccc12 | 40 µM (inactive) | 33.1 µM (inactive) | 99.8 µM (inactive) | 41.5 µM (inactive) | 37.3 µM (inactive) | 46.7 µM (inactive) | 33.2 µM (inactive) | 38 µM (inactive) | > 100 µM (inactive) | 39.1 µM (inactive) | 76.2 µM (inactive) | 34.2 µM (inactive) | 43 µM (inactive) | 38.9 µM (inactive) | > 100 µM (inactive) | 32.4 µM (inactive) | 41.6 | 40.6 µM (inactive) | 38.3 µM (inactive) | – |
| N=C(N)NCCCC(NC(=O)OCCCCCn1ccc(N)nc1=O)C(=O)O (stereo not drawn) | > 100 µM (inactive) | > 100 µM (inactive) | > 100 µM (inactive) | > 100 µM (inactive) | > 100 µM (inactive) | > 100 µM (inactive) | > 100 µM (inactive) | > 100 µM (inactive) | > 100 µM (inactive) | > 100 µM (inactive) | > 100 µM (inactive) | > 100 µM (inactive) | > 100 µM (inactive) | > 100 µM (inactive) | > 100 µM (inactive) | > 100 µM (inactive) | > 100 | > 100 µM (inactive) | > 100 µM (inactive) | – |
| COc1ccc2o/c(=N\c3ccc(F)cc3)c(C(N)=O)cc2c1 | – | > 100 µM (inactive) | 27.4 µM (inactive) | 64.3 µM (inactive) | 10.5 µM (inactive) | 43 µM (inactive) | 42 µM (inactive) | 35.3 µM (inactive) | 17 µM (inactive) | 79.3 µM (inactive) | 30.2 µM (inactive) | 29.1 µM (inactive) | 12.4 µM (inactive) | 17.8 µM (inactive) | 22.8 µM (inactive) | > 100 µM (inactive) | > 100 | 46.8 µM (inactive) | 34.7 µM (inactive) | 47.1 µM (inactive) |
